# Assay results from patent US4640910A (Abbott Laboratories, priority 1985, dated 1987).
# Read-outs that look alike come from different tables or passages of the source.
# How the values were obtained:
# [1] = system: Strep. agalactiae CMX 508; assay: Antimicrobial spectrum, agar dilution MIC; assay type: cell-based; conditions: Streptococcus agalactiae, CMX508, BHI agar, 35°-37° C., 20-24 hours
# Strep. bovis A5169 = assay: Antimicrobial spectrum, agar dilution MIC; assay type: cell-based; conditions: Streptococcus equinus, BHI agar, 35°-37° C., 20-24 hours
# [2] = system: Lactobacillus casei ATCC 7469; assay: Antimicrobial spectrum, agar dilution MIC; assay type: cell-based; conditions: Lacticaseibacillus casei, ATCC7469; Lactobacillus casei ATCC 7469; BHI agar, 35°-37° C., 20-24 hours; read-out: MIC
# [3] = Stability and release of drug from prodrug in aqueous buffers pH 2 to 12 (dissolution apparatus, HPLC); assay type: physicochemical; conditions: for conversion to active drug: 37° C.
# Procedure: (§1) Samples of 2'-trimethylsilylerythromycin A and 2'-trimethylsilyl-6-O-methylerythromycin A were dissolved in 10-50 ml dimethyl sulfoxide or acetonitrile to give a solution containing 15-75 mg/ml. An aliquot containing 75 mg of prodrug was added to aqueous buffers ranging in pH from 2 to 12 to give a final volume equal to 500 ml. The buffered mixtures were stirred at 37° C. for at least 90 minutes. A standard dissolution test apparatus (Vanderkamp 600, Van-Kel Industries, Inc., 36 Meridian Road, Edisoin, N.J. 08820) was used to provide temperature and stirring rate control.
# (§2) Aliquots were taken at 15, 30, 45, 60, 90, 120, 180, 240 and 360 minutes for analysis. Each sample was mixed with an internal standard, adjusted rapidly to pH 9 with 1M tricine buffer and extracted immediately with ethyl acetate. The organic extracts were evaporated and redissolved in a solution of 3% tetrahydrofuran in heptane. Samples of these solutions were injected using an autosampler (WISP 71)B, Waters Chromatography, Division of Millipore, 34 Maple Street, Milford, Mass. 01757). The prodrugs and drugs were separated by high performance liquid chromatography, detected at 225 nm using a spectrophotometer (Spectroflow 773 Absorbence Detector, Kratos Analytical Instruments), and were quantified with a digital integrator.
# Strep. pyogenes EES61 = assay: Antimicrobial spectrum, agar dilution MIC; assay type: cell-based; conditions: Streptococcus pyogenes, BHI agar, 35°-37° C., 20-24 hours
# Ps. aeruginosa K799/61 = assay: Antimicrobial spectrum, agar dilution MIC; assay type: cell-based; conditions: Pseudomonas aeruginosa, BHI agar, 35°-37° C., 20-24 hours
# Strep. pyogenes = assay: Extended mouse protection study; conditions: oral
# Micrococcus luteus 4698 = assay: Antimicrobial spectrum, agar dilution MIC; assay type: cell-based; conditions: BHI agar, 35°-37° C., 20-24 hours
# E. coli JUHL = assay: Antimicrobial spectrum, agar dilution MIC; assay type: cell-based; conditions: Escherichia coli, BHI agar, 35°-37° C., 20-24 hours
# Strep. pyogenes 930 = assay: Antimicrobial spectrum, agar dilution MIC; assay type: cell-based; conditions: Streptococcus pyogenes, BHI agar, 35°-37° C., 20-24 hours
# [4] = system: Providencia stuartii CMX 640; assay: Antimicrobial spectrum, agar dilution MIC; assay type: cell-based; conditions: Providencia stuartii, CMX640
# E. coli DC-2 = assay: Antimicrobial spectrum, agar dilution MIC; assay type: cell-based; conditions: Escherichia coli, DC2, BHI agar, 35°-37° C., 20-24 hours
# E. coli H560 = assay: Antimicrobial spectrum, agar dilution MIC; assay type: cell-based; conditions: Escherichia coli, BHI agar, 35°-37° C., 20-24 hours
# Staph. aureus A 5177 = assay: Antimicrobial spectrum, agar dilution MIC; assay type: cell-based; conditions: Staphylococcus aureus, A5177
# Staph. aureus CMX 686B = assay: Antimicrobial spectrum, agar dilution MIC; assay type: cell-based; conditions: Staphylococcus aureus, CMX686B, BHI agar, 35°-37° C., 20-24 hours
# Ps. aeruginosa A5007 = assay: Antimicrobial spectrum, agar dilution MIC; assay type: cell-based; conditions: Pseudomonas aeruginosa, BHI agar, 35°-37° C., 20-24 hours
# E. coli SS = assay: Antimicrobial spectrum, agar dilution MIC; assay type: cell-based; conditions: Escherichia coli, BHI agar, 35°-37° C., 20-24 hours
# Strep. faecium ATCC 8043 = assay: Antimicrobial spectrum, agar dilution MIC; assay type: cell-based; conditions: Enterococcus faecium, ATCC8043, BHI agar, 35°-37° C., 20-24 hours
# [5] = system: Enterobact. aerogenes ATCC 13048; assay: Antimicrobial spectrum, agar dilution MIC; assay type: cell-based
# Ps. aeruginosa BMH10 = assay: Antimicrobial spectrum, agar dilution MIC; assay type: cell-based; conditions: Pseudomonas aeruginosa, BMH10
# Ps. aeruginosa K799/WT = assay: Antimicrobial spectrum, agar dilution MIC; assay type: cell-based; conditions: Pseudomonas aeruginosa, BHI agar, 35°-37° C., 20-24 hours
# Strep. pneumoniae = assay: Extended mouse protection study; conditions: oral
# Staph. epidermidis 3519 = assay: Antimicrobial spectrum, agar dilution MIC; assay type: cell-based; conditions: Staphylococcus epidermidis, BHI agar, 35°-37° C., 20-24 hours
# [6] = system: Staph. epidermidis 3519 RARI; assay: Antimicrobial spectrum, agar dilution MIC; assay type: cell-based; conditions: Staphylococcus epidermidis
# Micrococcus luteus 9341 = assay: Antimicrobial spectrum, agar dilution MIC; assay type: cell-based; conditions: Micrococcus luteus 9341; BHI agar, 35°-37° C., 20-24 hours; read-out: MIC
# [7] = Solubility of prodrug in aqueous buffers; assay type: physicochemical
# Procedure: as §1, §2
# Staph. aureus ATCC 6538P = assay: Antimicrobial spectrum, agar dilution MIC; assay type: cell-based; conditions: Staphylococcus aureus, ATCC6538P, BHI agar, 35°-37° C., 20-24 hours
# Ps. cepacia 2961 = assay: Antimicrobial spectrum, agar dilution MIC; assay type: cell-based; conditions: Burkholderia cepacia, 2961
# Staph. aureus = assay: Extended mouse protection study; conditions: oral
# [8] = system: Acinetobacter sp. CMX 669; assay: Antimicrobial spectrum, agar dilution MIC; assay type: cell-based; conditions: SP.CMX669, BHI agar, 35°-37° C., 20-24 hours
# [9] = system: Klebsiella pneumoniae 8045; assay: Antimicrobial spectrum, agar dilution MIC; assay type: cell-based; conditions: BHI agar, 35°-37° C., 20-24 hours
# [10] = carboxymethylcellulose with milk (reduces gastric acid secretion)
# [11] = phosphate buffer solution with milk (reduces gastric acid secretion)
compound,measurement,setting,value
"CC[C@H]1OC(=O)[C@H](C)[C@@H](O[C@H]2C[C@@](C)(OC)[C@@H](O)[C@H](C)O2)[C@H](C)[C@@H](O[C@@H]2O[C@H](C)C[C@H](N(C)C)[C@H]2O[Si](C)(C)C)[C@](C)(OC)C[C@@H](C)C(=O)[C@H](C)[C@@H](O)[C@]1(C)O [Example 3, 2'-O-trimethylsilyl-6-O-methyl-Erythromycin A]",MIC,[1],0.1 µg/mL
same,MIC,Strep. bovis A5169,0.1 µg/mL
same,MIC,[2],0.1 µg/mL
same,conversion to active drug,[3]; acid pH,converted to the active drug 6-O-methylerythromycin A
same,release rates,"[3]; pH 3 and 4, 37° C.",both dissolution-rate limited release and also release from the initially dissolved material
same,release rates,"[3]; pH 5, 6 and 7, 37° C.",dissolution-rate limited release
same,decomposition,"[3]; pH 7, owing to solubility properties",severely restrict its decomposition
same,conversion to active drug,[3]; pH 8 or above,Very little or no conversion
same,MIC,Strep. pyogenes EES61,0.05 µg/mL
same,MIC,Ps. aeruginosa K799/61,25 µg/mL
same,ED50,Strep. pyogenes; [10],7.8 mg/kg/day
same,ED50,Strep. pyogenes; phosphate buffer solution,12.7 mg/kg/day
same,ED50,Strep. pyogenes; [11],14.1 mg/kg/day
same,MIC,Micrococcus luteus 4698,0.39 µg/mL
same,MIC,E. coli JUHL,100 µg/mL
same,MIC,Strep. pyogenes 930,100 µg/mL
same,MIC,[4],100 µg/mL
same,MIC,E. coli DC-2,100 µg/mL
same,MIC,E. coli H560,100 µg/mL
same,MIC,Staph. aureus A 5177,3.1 µg/mL
same,MIC,Staph. aureus CMX 686B,0.78 µg/mL
same,MIC,Ps. aeruginosa A5007,100 µg/mL
same,MIC,E. coli SS,0.39 µg/mL
same,MIC,Strep. faecium ATCC 8043,0.2 µg/mL
same,MIC,[5],100 µg/mL
same,MIC,Ps. aeruginosa BMH10,100 µg/mL
same,MIC,Ps. aeruginosa K799/WT,100 µg/mL
same,ED50,Strep. pneumoniae; carboxymethylcellulose,7.9 mg/kg/day
same,ED50,Strep. pneumoniae; [10],7.3 mg/kg/day
same,ED50,Strep. pneumoniae; phosphate buffer solution,9.3 mg/kg/day
same,ED50,Strep. pneumoniae; [11],10.9 mg/kg/day
same,MIC,Staph. epidermidis 3519,0.78 µg/mL
same,MIC,[6],0.39 µg/mL
same,MIC,Micrococcus luteus 9341,0.1 µg/mL
same,solubility,"[7]; aqueous buffer, pH 2, completely soluble, read-out: solubility",≥ 150 µg/mL
same,solubility,[7]; neutral or alkaline pH,little or no solubility
same,MIC,Staph. aureus ATCC 6538P,0.78 µg/mL
same,MIC,Ps. cepacia 2961,100 µg/mL
same,ED50,Staph. aureus; carboxymethylcellulose,34.9 mg/kg/day
same,ED50,Staph. aureus; phosphate buffer solution,157.9 mg/kg/day
same,MIC,[8],50 µg/mL
same,MIC,[9],100 µg/mL
